Measurements reported in US20240180889A1, “COMBINATION THERAPY FOR COVID-19 VACCINATION” (priority 2021, published 2024).

Key:
[1] = tested on: Tartrate Resistant Acid Phosphatase (TRAP) activity in RAW-OC cells; format: cell-based, mouse
MDA-MB-231 cells = format: cell-based, human
MCF-7 cells = format: cell-based

C[C@]12CC[C@@H]3c4ccc(O)cc4CC[C@H]3[C@@H]1CC[C@@H]2O [17β-estradiol]
activity of TRAP [1]: superimposable decrease | cell proliferation (BrdU) (MDA-MB-231 cells): do not significantly affect cell proliferation

O=C(c1ccc(OCCN2CCCCC2)cc1)c1c(-c2ccc(O)cc2)sc2cc(O)ccc12 [Raloxifene, raloxifene]
effect on proliferation promoting activity of 17β-estradiol and spike (MCF-7 cells): blocked | effect on the estradiol- or spike-induced decrease in TRAP activity [1]: blocked
